Results published in US7112586B2, “Substituted diamine derivatives useful as motilin antagonists” (Ortho-McNeil Pharmaceutical, Inc., priority 2000, dated 2006).

Biological target: T1, Motilin Receptor (Oryctolagus cuniculus, UniProt G1T803)
T1 construct: The muscle tissue was homogenized in 10 volumes of 50 mM Tris-Cl; from tissue; host or cells: rabbit colon smooth muscle, crude membrane homogenate
Assay: Motilin receptor binding, rabbit colon membranes, 125I porcine motilin
Parameters: Rabbit Colon % Inh / inhibition / % Inh (Rabbit colon): dose or concentration left out as unconfirmed
Settings: rabbit colon membranes; for inhibition: read-out: Rabbit Colon % Inh; for IC50: read-out: Rabbit Colon IC50; for % Inh (Rabbit colon): 125I porcine motilin binding
Description: Rabbit colon was removed, dissected free from the mucosa and serosa, and diced into small pieces. The muscle tissue was homogenized in 10 volumes of 50 mM Tris-Cl, 10 mM MgCl2, 0.1 mg/ml bacitracin, and 0.25 mM Peflabloc, at pH 7.5 in a Polytron (29000 rpm, 4×15 seconds). The homogenate was centrifuged at 1000×g for 15 minutes and the supernatant discarded. The pellet was washed twice before being suspended in homogenizing buffer. The crude homogenate was resuspended through a 23 gauge needle before storing at −80° C. […] After 60 minutes at 30° C., the samples were cooled in ice, centrifuged in the cold at 13000×g for 1 minute. The pellet was washed twice with 1 ml of cold saline, the supernatant was aspirated, and the pellet at the bottom of the tube counted in a gamma counter. Non-specific binding was determined by the inclusion of 1 mM of unlabeled motilin. IC50 values were determined from Kaleidograph curves.

T1 sequence (G1T803 1-400): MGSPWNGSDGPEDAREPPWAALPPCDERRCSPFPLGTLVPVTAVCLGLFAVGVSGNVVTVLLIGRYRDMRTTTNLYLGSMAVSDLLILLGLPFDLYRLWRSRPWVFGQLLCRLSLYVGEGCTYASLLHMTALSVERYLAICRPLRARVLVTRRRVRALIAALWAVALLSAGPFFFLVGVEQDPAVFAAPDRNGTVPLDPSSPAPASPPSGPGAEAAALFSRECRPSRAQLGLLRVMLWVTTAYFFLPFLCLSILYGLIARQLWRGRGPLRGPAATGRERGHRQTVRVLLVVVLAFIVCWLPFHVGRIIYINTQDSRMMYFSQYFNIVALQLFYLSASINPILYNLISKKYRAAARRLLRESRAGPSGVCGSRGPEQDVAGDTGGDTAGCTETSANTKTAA

Structure (SMILES)	Rabbit Colon % Inh [%]	further results
O=C(Nc1ccccc1)N(CC1CCCC(N(Cc2ccccc2)S(=O)(=O)c2ccc3ccccc3c2)C1)c1cccc(OCCN2CCOCC2)c1 (centres unmarked) [compound 57]	–	inhibition: 15%
O=C(Nc1ccccc1)N(CC1CCCC(N(Cc2cc(Cl)cc(Cl)c2)C(=O)C(Cl)(Cl)Cl)C1)c1cccc(OCCN2CCOCC2)c1 (centres unmarked) [compound 60]	–	inhibition: 65%; IC50: 660 nM
COc1cccc(CN(C(=O)C(Cl)(Cl)Cl)C2CCCC(CN(C(=O)Nc3ccccc3)c3cccc(OCCN4CCOCC4)c3)C2)c1 (centres unmarked) [compound 61]	55	–
O=C(Nc1ccccc1)N(CC1CCCC(N(Cc2ccc(Cl)cc2)C(=O)C(Cl)(Cl)Cl)C1)c1cccc(OCCN2CCOCC2)c1 (centres unmarked) [compound 63]	55	–
O=C(Nc1ccccc1)N(CC1CCCC(N(Cc2cccc3ccccc23)C(=O)C(Cl)(Cl)Cl)C1)c1cccc(OCCN2CCOCC2)c1 (centres unmarked) [compound 64]	32	–
O=C(Nc1ccccc1)N(CC1CCCC(N(Cc2ccccc2)C(=O)C(Cl)(Cl)Cl)C1)c1cccc(OCCN2CCOCC2)c1 (centres unmarked) [compound 67]	–	inhibition: 75%; IC50: 957 nM
O=C(Nc1ccccc1)N(CC1CCCC(N(Cc2ccccn2)C(=O)C(Cl)(Cl)Cl)C1)c1cccc(OCCN2CCOCC2)c1 (centres unmarked) [compound 68]	–	inhibition: 73%; IC50: 660 nM
O=C(Nc1ccccc1)N(CC1CCCC(NS(=O)(=O)c2ccc3ccccc3c2)C1)c1cccc(OCCN2CCOCC2)c1 (centres unmarked) [compound 71]	43	–
O=C(Nc1ccccc1)N(CC1CCCC(NC(=O)C(Cl)(Cl)Cl)C1)c1cccc(OCCN2CCOCC2)c1 (centres unmarked) [compound 72]	–	inhibition: 40%
O=C(Nc1ccccc1)N(CC1CCCC(NC(=O)C(F)(F)F)C1)c1cccc(OCCN2CCOCC2)c1 (centres unmarked) [compound 73]	25	–
COc1cccc(C(=O)NC2CCCC(CN(C(=O)Nc3ccccc3)c3cccc(OCCN4CCOCC4)c3)C2)c1 (centres unmarked) [compound 76]	26	–
CC(C)(C)C(=O)NC1CCCC(CN(C(=O)Nc2ccccc2)c2cccc(OCCN3CCOCC3)c2)C1 (centres unmarked) [compound 77]	19	–
O=C(CCc1ccccc1)NC1CCCC(CN(C(=O)Nc2ccccc2)c2cccc(OCCN3CCOCC3)c2)C1 (centres unmarked) [compound 78]	10	–
O=C(NC1CCCC(CN(C(=O)Nc2ccccc2)c2cccc(OCCN3CCOCC3)c2)C1)c1ccc2ccccc2c1 (centres unmarked) [compound 79]	39	–
O=C(NC1CCCC(CN(C(=O)Nc2ccccc2)c2cccc(OCCN3CCOCC3)c2)C1)C(c1ccccc1)c1ccccc1 (centres unmarked) [compound 81]	56	–
O=C(Nc1ccccc1)N(CC1CCCC(N(Cc2ccccc2)C(=O)c2cc(C(F)(F)F)cc(C(F)(F)F)c2)C1)c1cccc(OCCN2CCOCC2)c1 (centres unmarked) [compound 82]	0	–
O=C(Nc1ccccc1)N(CC1CCCC(N(Cc2ccccc2)C(=O)c2ccc(-c3ccccc3)cc2)C1)c1cccc(OCCN2CCOCC2)c1 (centres unmarked) [compound 83]	3	–
O=C(Nc1ccccc1)N(CC1CCCC(NCc2ccccc2)C1)c1cccc(OCCN2CCOCC2)c1 (centres unmarked) [compound 84]	–	% Inh (Rabbit colon): 12%
O=C(Nc1ccccc1)N(CC1CCCC(NCc2cccc(Cl)c2)C1)c1cccc(OCCN2CCOCC2)c1 (centres unmarked) [compound 85]	–	% Inh (Rabbit colon): 28%

Structure (SMILES)	Rabbit Colon % Inh [%]	further results
O=C(Nc1ccccc1)N(CC1CCCC(NCc2cc(Cl)cc(Cl)c2)C1)c1cccc(OCCN2CCOCC2)c1 (centres unmarked) [compound 87]	–	% Inh (Rabbit colon): 22%
O=C(Nc1ccccc1)N(CC1CCCC(NCc2cccc3ccccc23)C1)c1cccc(OCCN2CCOCC2)c1 (centres unmarked) [compound 88]	–	% Inh (Rabbit colon): 0%
O=C(c1ccc(F)cc1)N(CC1CCCC(NC(=O)C(Cl)(Cl)Cl)C1)c1cccc(OCCN2CCOCC2)c1 (centres unmarked) [compound 91]	36	–
O=C(c1ccc(F)cc1)N(CC1CCCC(N(Cc2cccc3ccccc23)C(=O)C(Cl)(Cl)Cl)C1)c1cccc(OCCN2CCOCC2)c1 (centres unmarked) [compound 94]	28	–
O=C(c1ccc(F)cc1)N(CC1CCCC(N(Cc2ccc(Cl)cc2)C(=O)C(Cl)(Cl)Cl)C1)c1cccc(OCCN2CCOCC2)c1 (centres unmarked) [compound 95]	51	–
COc1cccc(CN(C(=O)C(Cl)(Cl)Cl)C2CCCC(CN(C(=O)c3ccc(F)cc3)c3cccc(OCCN4CCOCC4)c3)C2)c1 (centres unmarked) [compound 97]	56	–
O=C(c1ccc(F)cc1)N(CC1CCCC(N(Cc2cc(Cl)cc(Cl)c2)C(=O)C(Cl)(Cl)Cl)C1)c1cccc(OCCN2CCOCC2)c1 (centres unmarked) [compound 98]	–	inhibition: 75%; IC50: 760 nM
O=C(c1ccc(F)cc1)N(CC1CCCC(N(Cc2ccc(Cl)c(Cl)c2)C(=O)C(Cl)(Cl)Cl)C1)c1cccc(OCCN2CCOCC2)c1 (centres unmarked) [compound 99]	–	inhibition: 62%; IC50: 572 nM
O=C(c1ccc(F)cc1)N(CC1CCCC(N(Cc2cccc(Cl)c2)C(=O)C(c2ccccc2)c2ccccc2)C1)c1cccc(OCCN2CCOCC2)c1 (centres unmarked) [compound 101]	59	–
O=C(c1ccc(F)cc1)N(CC1CCCC(N(Cc2cccc(Cl)c2)C(=O)c2cccc([N+](=O)[O-])c2)C1)c1cccc(OCCN2CCOCC2)c1 (centres unmarked) [compound 102]	47	–
O=C(c1ccc(F)cc1)N(CC1CCCC(N(Cc2cccc(Cl)c2)C(=O)c2ccc3ccccc3c2)C1)c1cccc(OCCN2CCOCC2)c1 (centres unmarked) [compound 103]	2	–
O=C(c1ccc(F)cc1)N(CC1CCCC(N(Cc2cccc(Cl)c2)C(=O)CCc2ccccc2)C1)c1cccc(OCCN2CCOCC2)c1 (centres unmarked) [compound 104]	30	–
COc1cccc(C(=O)N(Cc2cccc(Cl)c2)C2CCCC(CN(C(=O)c3ccc(F)cc3)c3cccc(OCCN4CCOCC4)c3)C2)c1 (centres unmarked) [compound 106]	–	inhibition: 69%; IC50: 1050 nM
O=C(c1ccc(F)cc1)N(CC1CCCC(N(Cc2cccc(Cl)c2)C(=O)c2cc(C(F)(F)F)cc(C(F)(F)F)c2)C1)c1cccc(OCCN2CCOCC2)c1 (centres unmarked) [compound 107]	29	–
O=C(c1ccc(F)cc1)N(CC1CCCC(N(Cc2cccc(Cl)c2)C(=O)C(F)(F)F)C1)c1cccc(OCCN2CCOCC2)c1 (centres unmarked) [compound 108]	–	inhibition: 70%; IC50: 815 nM
O=C(c1ccc(F)cc1)N(CC1CCCC(N(Cc2cccc(Cl)c2)C(=O)c2ccc(-c3ccccc3)cc2)C1)c1cccc(OCCN2CCOCC2)c1 (centres unmarked) [compound 109]	27	–
O=C(c1ccc(F)cc1)N(CC1CCCC(N(Cc2cccc(Cl)c2)C(=O)C(Cl)(Cl)Cl)C1)c1cccc(OCCN2CCOCC2)c1 (centres unmarked) [compound 111]	–	inhibition: 72%; IC50: 880 nM
O=C(c1ccc(F)cc1)N(CC1CCCC(N(Cc2ccccc2)C(=O)C(c2ccccc2)c2ccccc2)C1)c1cccc(OCCN2CCOCC2)c1 (centres unmarked) [compound 112]	–	inhibition: 70%; IC50: 480 nM

The next lines start with results.

Rabbit Colon % Inh [%]	Structure (SMILES)	further results
48	O=C(Nc1ccccc1)N(CC1CCCC(N(Cc2cccc(Cl)c2)C(=O)c2cccc([N+](=O)[O-])c2)C1)c1cccc(OCCN2CCOCC2)c1 (centres unmarked) [compound 55]	–
27	O=C(Nc1ccccc1)N(CC1CCCC(N(Cc2cccc(Cl)c2)C(=O)C(c2ccccc2)c2ccccc2)C1)c1cccc(OCCN2CCOCC2)c1 (centres unmarked) [compound 56]	–
38	O=C(Nc1ccccc1)N(CC1CCCC(N(Cc2cccc(F)c2)C(=O)C(Cl)(Cl)Cl)C1)c1cccc(OCCN2CCOCC2)c1 (centres unmarked) [compound 58]	–
23	O=C(Nc1ccccc1)N(CC1CCCC(N(Cc2ccc(Cl)c(Cl)c2)C(=O)C(Cl)(Cl)Cl)C1)c1cccc(OCCN2CCOCC2)c1 (centres unmarked) [compound 59]	–
58	O=C(Nc1ccccc1)N(CC1CCCC(N(Cc2cccc(C(F)(F)F)c2)C(=O)C(Cl)(Cl)Cl)C1)c1cccc(OCCN2CCOCC2)c1 (centres unmarked) [compound 62]	–
39	O=C(Nc1ccccc1)N(CC1CCCC(N(Cc2cccc(Cl)c2Cl)C(=O)C(Cl)(Cl)Cl)C1)c1cccc(OCCN2CCOCC2)c1 (centres unmarked) [compound 66]	–
0	O=C(Nc1ccccc1)NC1CCCC(CN(C(=O)Nc2ccccc2)c2cccc(OCCN3CCOCC3)c2)C1 (centres unmarked) [compound 69]	–
0	O=C(NC1CCCC(CN(C(=O)Nc2ccccc2)c2cccc(OCCN3CCOCC3)c2)C1)c1ccco1 (centres unmarked) [compound 70]	–
29	O=C(NC1CCCC(CN(C(=O)Nc2ccccc2)c2cccc(OCCN3CCOCC3)c2)C1)c1cc(C(F)(F)F)cc(C(F)(F)F)c1 (centres unmarked) [compound 74]	–
19	O=C(NC1CCCC(CN(C(=O)Nc2ccccc2)c2cccc(OCCN3CCOCC3)c2)C1)c1ccc(-c2ccccc2)cc1 (centres unmarked) [compound 75]	–
34	O=C(NC1CCCC(CN(C(=O)Nc2ccccc2)c2cccc(OCCN3CCOCC3)c2)C1)c1cccc([N+](=O)[O-])c1 (centres unmarked) [compound 80]	–
16	O=C(Nc1ccccc1)N(CC1CCCC(N(Cc2cccc(Cl)c2)C(=O)c2cccc(O)c2)C1)c1cccc(OCCN2CCOCC2)c1 (centres unmarked) [compound 86]	–
80	O=C(c1ccc(F)cc1)N(CC1CCCC(N(Cc2cccc(Cl)c2Cl)C(=O)C(Cl)(Cl)Cl)C1)c1cccc(OCCN2CCOCC2)c1 (centres unmarked) [compound 92]	–
78	O=C(c1ccc(F)cc1)N(CC1CCCC(N(Cc2cccc(F)c2)C(=O)C(Cl)(Cl)Cl)C1)c1cccc(OCCN2CCOCC2)c1 (centres unmarked) [compound 100]	–
51	O=C(c1ccc(F)cc1)N(CC1CCCC(N(Cc2ccccc2)C(=O)c2cccc([N+](=O)[O-])c2)C1)c1cccc(OCCN2CCOCC2)c1 (centres unmarked) [compound 113]	–
49	O=C(c1ccc(F)cc1)N(CC1CCCC(N(Cc2ccccc2)C(=O)c2ccc3ccccc3c2)C1)c1cccc(OCCN2CCOCC2)c1 (centres unmarked) [compound 114]	–
